From publication PMC7496872 (Chemmedchem, 2020)

Assays:
TLR2/1 = target: T1, TLR2/1 (Homo sapiens, UniProt O60603); assay: TLR2/1 (Pam3CSK4)-induced NF-κB/AP-1 SEAP reporter in HEK-Blue hTLR2 cells; type: cell-based; details: for IC50 / TLR2-mediated NF-κB activation in primary screen, TLR2/1 (in words): Pam3CSK4 10 ng/mL; for IC50: HEK-Blue hTLR2 cells, n=3, 95 % confidence interval in brackets; for Pam3CSK4-induced TLR2/1 response (remaining): compound at 50 μM, 1 h pre-incubation, Pam3CSK4 10 ng/mL 24 h; for TLR2-mediated NF-κB activation in primary screen, TLR2/1 (in words): Figure 3A
T1 construct: host or cells: HEK-Blue hTLR2 cells
T1 sequence (O60603 21-784): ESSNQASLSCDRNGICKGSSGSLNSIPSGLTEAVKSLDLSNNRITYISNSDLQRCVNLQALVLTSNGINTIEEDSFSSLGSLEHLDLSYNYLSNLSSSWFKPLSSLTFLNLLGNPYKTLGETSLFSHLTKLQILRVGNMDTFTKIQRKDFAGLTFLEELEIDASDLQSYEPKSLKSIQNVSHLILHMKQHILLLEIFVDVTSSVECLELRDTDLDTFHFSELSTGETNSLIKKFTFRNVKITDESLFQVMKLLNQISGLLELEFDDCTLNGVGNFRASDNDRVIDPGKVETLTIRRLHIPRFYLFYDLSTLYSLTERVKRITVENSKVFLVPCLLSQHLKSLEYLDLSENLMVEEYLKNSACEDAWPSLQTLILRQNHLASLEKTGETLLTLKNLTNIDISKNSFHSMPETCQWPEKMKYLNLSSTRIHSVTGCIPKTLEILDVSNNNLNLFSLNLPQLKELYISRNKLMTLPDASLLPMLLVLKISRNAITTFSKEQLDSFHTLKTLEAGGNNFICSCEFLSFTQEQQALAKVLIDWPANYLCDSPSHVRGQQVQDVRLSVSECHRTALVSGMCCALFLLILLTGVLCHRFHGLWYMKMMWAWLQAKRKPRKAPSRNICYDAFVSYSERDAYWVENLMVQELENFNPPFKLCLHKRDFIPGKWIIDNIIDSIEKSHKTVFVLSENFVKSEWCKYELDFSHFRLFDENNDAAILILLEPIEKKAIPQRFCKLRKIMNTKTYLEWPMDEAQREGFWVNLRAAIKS
Method: (§1) Figure 3 Inhibition of TLR2‐dependent NF‐κB activation and IL‐8 secretion. A) HEK‐Blue hTLR2 cells were pre‐incubated with CU‐CPT22 or compounds 1–6 and 9–11 for 1 h and then stimulated additionally with TLR2/1 agonist Pam3CSK4 (10 ng/mL) or TLR2/6 agonist Pam2CSK4 (1 ng/mL) for 24 h. B) HEK‐Blue hTLR2 cells were pre‐incubated with increasing concentrations of 4, 6, 9, 10 and then stimulated additionally with Pam3CSK4 or Pam2CSK4 for 24 h. Supernatants were tested for TLR2‐mediated NF‐κB/AP‐1 activity by quantification of SEAP release (OD640). C) THP‐1 macrophages were incubated with CU‐CPT22 (25 μM) or compound 6 for 1 h and afterwards stimulated with Pam3CSK4 (10 ng/mL), Pam2CSK4 (1ng/mL), LPS (10 ng/mL), flagellin (1 μg/mL), CL075 (8 μM) or ODN2006 (5 μM) for 24 h. Supernatants were analyzed for IL‐8 secretion by ELISA. Mean+SD or ±SD (n=3).
(§2) Cell culture: Human embryonic kidney (HEK)‐Blue hTLR2 cells (InvivoGen, Touluse, France) were used from passage 5 to 20. Stimulation of the cells with TLR2 agonists leads to production and secretion of NF‐κB‐inducible embryonic alkaline phosphatase (SEAP). The enzyme transforms the substrate QUANTI‐Blue (InvivoGen) into a blue dye that was detected by optical density (OD) at 640 nm as previously described.11a, 12 THP‐1 cells (DSMZ, Braunschweig, Germany) from passage 10 to 15 were cultured as previously reported.13 For the generation of THP‐1 macrophages, THP‐1 monocytes were first incubated with 25 ng/mL Phorbol 12‐myristate 13‐acetate (PMA, Sigma‐Aldrich) for 48 h and afterwards rested for 24 h. The cell lines were cultured at 37 °C in a humidified atmosphere of 5 % CO2 and 95 % air and were regularly tested negative for mycoplasma contamination (VenorGeM Classic Mycoplasma PCR detection kit, Minerva Biolabs, Berlin, Germany).
(§3) Cell stimulation: HEK‐Blue hTLR2 cells (4×10^4 cells/well) and THP‐1 macrophages (2×10^5 cells/well) were cultured in 96‐well plates and 24‐well plates (TPP, Trasadingen, Switzerland). After cells were washed with phosphate‐buffered saline (PBS, Sigma‐Aldrich), cell stimulation was done in OptiMEM (ThermoFisher Scientific). The tested compounds and CU‐CPT22 (50 mM) were dissolved in DMSO. Final DMSO concentrations in cell culture were below 0.2 % (v/v). […] For co‐stimulation of TLR2 agonists and tested modulators, cells were preincubated with the compounds or CU‐CPT22 for 1 h and afterwards stimulated with the agonists.
(§4) Statistical analysis: Data of the bar charts are shown as mean+SD. Potency (IC50) data are presented as mean with the confidence interval (95 %). Statistical analysis was done by using GraphPad Prism 6.0 (GraphPad software, San Diego, USA). Nonlinear regression was used to plot and analyze concentration‐response curves and to obtain IC50 values.

TLR2/6 = target: T2, TLR2/6 (Homo sapiens, UniProt O60603); assay: TLR2/6 (Pam2CSK4)-induced NF-κB/AP-1 SEAP reporter in HEK-Blue hTLR2 cells; type: cell-based; details: for IC50 / TLR2-mediated NF-κB activation in primary screen, TLR2/6 (in words): Pam2CSK4 1 ng/mL; for IC50: HEK-Blue hTLR2 cells, n=3, 95 % confidence interval in brackets; for TLR2-mediated NF-κB activation in primary screen, TLR2/6 (in words): Figure 3A; for Pam2CSK4-induced TLR2/6 response (remaining): compound at 50 μM, 1 h pre-incubation, Pam2CSK4 1 ng/mL 24 h
T2 construct: host or cells: HEK-Blue hTLR2 cells
T2 sequence (O60603 21-784): as above
Method: as §1, §2, §3, §4

TLR2 = target: T3, TLR2 (Homo sapiens, UniProt O60603); assay: Agonistic TLR2 activity, SEAP production in HEK-Blue hTLR2 cells; type: cell-based; details: compounds alone for 24 h, SEAP OD 640 nm
T3 construct: host or cells: HEK-Blue hTLR2 cells
T3 sequence (O60603 21-784): as above
Method: as §2
(§5) 1.1 Supplementary Figure 1: Agonistic activity and cell viability […]
up to 50 µM. (A) HEK-Blue hTLR2 cells were stimulated with Pam3CSK4 (10 ng/ml) or the compounds 1-9 for 24 h. SEAP production was detected by QUANTI-Blue as OD at 640 nm. (B) HEK-Blue hTLR2 cells were stimulated with DMSO (10% v/v) or the compounds for 24 h. Cell viability was determined by MTT assay and normalized to unstimulated cells (dashed line). Mean +SD (n=3). […]

HEK-Blue hTLR2 cells = assay: Cell viability by MTT assay; type: cell-based, human; details: 24 h
Method: Cell viability: Cell viability was assessed by the MTT assay in HEK Blue hTLR2 cells as previously described.14 10 % (v/v) DMSO (Carl Roth) served as control and the viability of untreated cells was defined as 100 %.
as §5
up to 50 µM. (A) HEK-Blue hTLR2 cells were stimulated with Pam3CSK4 (10 ng/ml) or the compounds 1-9 for 24 h. SEAP production was detected by QUANTI-Blue as OD at 640 nm. (B) HEK-Blue hTLR2 cells were stimulated with DMSO (10% v/v) or the compounds for 24 h. Cell viability was determined by MTT assay and normalized to unstimulated cells (dashed line). Mean +SD (n=3).
(1 picture or pasted object on this page, not shown here)

other TLR subtypes = assay: IL-8 secretion (ELISA) in THP-1 macrophages stimulated with agonists of other TLRs; type: cell-based, human; details: LPS, flagellin, CL075 or ODN2006 for 24 h
Method: as §1, with “C) THP‐1 macrophages were incubated with CU‐CPT22 (25 μM) or compound 6 for 1 h and afterwards stimulated with Pam3CSK4 (10 ng/mL), Pam2CSK4 (1ng/mL), LPS (10 ng/mL), flagellin (1 μg/mL), CL075 (8 μM) or ODN2006 (5 μM) for 24 h.” left out, “Mean+SD or ±SD (n=3).” left out
Cell culture: Human embryonic kidney (HEK)‐Blue hTLR2 cells (InvivoGen, Touluse, France) were used from passage 5 to 20. […] The enzyme transforms the substrate QUANTI‐Blue (InvivoGen) into a blue dye that was detected by optical density (OD) at 640 nm as previously described.11a, 12 THP‐1 cells (DSMZ, Braunschweig, Germany) from passage 10 to 15 were cultured as previously reported.13 For the generation of THP‐1 macrophages, THP‐1 monocytes were first incubated with 25 ng/mL Phorbol 12‐myristate 13‐acetate (PMA, Sigma‐Aldrich) for 48 h and afterwards rested for 24 h. […]
ELISA: Commercially available ELISA kits were used for detecting human IL‐8 levels in cell culture supernatants (ELISA‐Ready Set Go, Invitrogen by Thermo Fisher Scientific).

[1] = Chemical stability toward oxidation; type: physicochemical; details: aerobic conditions; 7 and 8 on debenzylation of the protected intermediates
Excerpt: Aromatic ketone 5, in which the amide linker between two benzene rings is replaced by a ketomethylene unit, was obtained via the direct C‐acylation of resorcinol (1,3‐diphenol) with 3,4‐dimethoxy‐phenyl acetic acid using boron trifluoride diethyl etherate as the activating Lewis acid in 19 % yield. Compounds 1–6 were isolated with >95 % purity by column chromatography. Synthesis of the trihydroxy‐derivatives, ethyl 3‐(2,3,4‐trihydroxy‐benzamido)benzoate 7 and ethyl 3‐(3,4,5‐trihydroxy‐benzamido)benzoate 8 was attempted following the same strategy as in Scheme 2. […] 7 and 8 therefore could not be isolated and tested biologically.

Row | Structure (SMILES) | IC50 (TLR2/1) | Pam3CSK4-induced TLR2/1 response (remaining) (TLR2/1) | TLR2-mediated NF-κB activation in primary screen, TLR2/1 (in words) (TLR2/1) | IC50 (TLR2/6) | TLR2-mediated NF-κB activation in primary screen, TLR2/6 (in words) (TLR2/6) | chemical stability / sensitivity to oxidation [1] | also measured
1 | CCOC(=O)c1cccc(NC(=O)c2cc(O)cc(O)c2)c1 [Compound 6, Ethyl 3‐(3,5‐dihydroxy‐benzamido)benzoate] | 15.4 µM | less than 40% | abrogated the TLR2 response of both heterodimers almost completely | 13.6 µM | abrogated the TLR2 response of both heterodimers almost completely | chemically stable | agonistic TLR2 activity (TLR2): no agonistic activity; cytotoxic effects / cell viability (in words) (HEK-Blue hTLR2 cells): nontoxic; lowest concentration reducing cell viability (HEK-Blue hTLR2 cells): > 50 µM; influence on other TLR subtypes (IL-8 secretion) (other TLR subtypes): no influence on other TLR subtypes
2 | CCOC(=O)c1cccc(NC(=O)c2cc(O)c(O)c(O)c2)c1 [Compound 8, ethyl 3‐(3,4,5‐trihydroxy‐benzamido)benzoate] | – | – | – | – | – | instantaneous decomposition | –
3 | CCOC(=O)c1ccc(CC(=O)c2c(C)cc(O)cc2O)o1 [Compound 10] | 44 µM | less than 40% | – | 40.7 µM | – | – | Pam2CSK4-induced TLR2/6 response (remaining) (TLR2/6): less than 50%
4 | CCOC(=O)c1cccc(NC(=O)Cc2ccc(OC)c(OC)c2)c1 [Compound 4, Ethyl 3‐(2‐(3,4‐dimethoxyphenyl)acetamido)benzoate] | 44.9 µM | less than 40% | – | 61.9 µM | – | – | –
5 | CCOC(=O)c1cccc(NC(=O)c2ccc(O)c(O)c2O)c1 [Compound 7, ethyl 3‐(2,3,4‐trihydroxy‐benzamido)benzoate] | – | – | – | – | – | instantaneous decomposition | –
6 | COC(=O)c1ccc(CC(=O)c2ccc(O)cc2O)o1 [Compound 9] | 42.4 µM | less than 40% | – | 42.9 µM | – | – | Pam2CSK4-induced TLR2/6 response (remaining) (TLR2/6): less than 50%
7 | CCCc1cc(C(=O)Cc2ccc(C(=O)OCC)o2)c(O)cc1O [Compound 11] | – | – | abrogated the TLR2 response of both heterodimers almost completely | – | abrogated the TLR2 response of both heterodimers almost completely | – | cytotoxic effects / cell viability (in words) (HEK-Blue hTLR2 cells): cytotoxic; lowest concentration reducing cell viability (HEK-Blue hTLR2 cells): 50 µM
8 | CCOC(=O)c1cccc(NC(=O)c2ccc(O)cc2O)c1 [Compound 1, Ethyl 3‐(2,4‐dihydroxy‐benzamido)benzoate] | – | – | Except for 1, all selected compounds decreased | – | Except for 1, all selected compounds decreased | – | –
